In PubChem BioAssay (NCI):
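96-well plates; 48 h exposure; 5 concentrations. Endpoints by linear interpolation between flanking doses. Not reached: highest tested concentration assigned. TGI: concentration producing complete growth inhibition.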

Columns and labels:
Experiment in all cases: NCI tumour cell line growth inhibition, 48 h
786-0 renal = system: 786-0 renal
A498 renal = system: A498 renal
A549 NSCLC = system: A549 NSCLC
ACHN renal = system: ACHN renal
CAKI-1 renal = system: CAKI-1 renal
CCRF-CEM leukemia = system: CCRF-CEM leukemia
COLO 205 colon = system: COLO 205 colon
DLD-1 colon = system: DLD-1 colon
DMS 114 small cell lung = system: DMS 114 small cell lung
DMS 273 small cell lung = system: DMS 273 small cell lung
EKVX NSCLC = system: EKVX NSCLC
HCC-2998 colon = system: HCC-2998 colon
HCT-116 colon = system: HCT-116 colon
HCT-15 colon = system: HCT-15 colon
HL-60(TB) leukemia = system: HL-60(TB) leukemia
HOP-18 NSCLC = system: HOP-18 NSCLC
HOP-62 NSCLC = system: HOP-62 NSCLC
HOP-92 NSCLC = system: HOP-92 NSCLC
HT29 colon = system: HT29 colon
IGROV1 ovarian = system: IGROV1 ovarian
K-562 leukemia = system: K-562 leukemia
KM12 colon = system: KM12 colon
KM20L2 colon = system: KM20L2 colon
LOX IMVI melanoma = system: LOX IMVI melanoma
LXFL 529 NSCLC = system: LXFL 529 NSCLC
M14 melanoma = system: M14 melanoma
M19-MEL melanoma = system: M19-MEL melanoma
MALME-3M melanoma = system: MALME-3M melanoma
MOLT-4 leukemia = system: MOLT-4 leukemia
NCI-H226 lung = system: NCI-H226 lung
NCI-H23 lung = system: NCI-H23 lung
NCI-H460 lung = system: NCI-H460 lung
NCI-H522 lung = system: NCI-H522 lung
OVCAR-3 ovarian = system: OVCAR-3 ovarian
OVCAR-4 ovarian = system: OVCAR-4 ovarian
OVCAR-5 ovarian = system: OVCAR-5 ovarian
OVCAR-8 ovarian = system: OVCAR-8 ovarian
RPMI-8226 leukemia = system: RPMI-8226 leukemia
RXF 393 renal = system: RXF 393 renal
RXF-631 renal = system: RXF-631 renal
SF-268 CNS = system: SF-268 CNS
SF-295 CNS = system: SF-295 CNS
SF-539 CNS = system: SF-539 CNS
SK-MEL-2 melanoma = system: SK-MEL-2 melanoma
SK-MEL-28 melanoma = system: SK-MEL-28 melanoma
SK-MEL-5 melanoma = system: SK-MEL-5 melanoma
SK-OV-3 ovarian = system: SK-OV-3 ovarian
SN12C renal = system: SN12C renal
SNB-19 CNS = system: SNB-19 CNS
SNB-75 CNS = system: SNB-75 CNS
SNB-78 CNS = system: SNB-78 CNS
SR leukemia = system: SR leukemia
SW-620 colon = system: SW-620 colon
TK-10 renal = system: TK-10 renal
U251 CNS = system: U251 CNS
UACC-257 melanoma = system: UACC-257 melanoma
UACC-62 melanoma = system: UACC-62 melanoma
UO-31 renal = system: UO-31 renal
XF 498 CNS = system: XF 498 CNS

Measured: TGI

NC(=S)N/N=C(\CCC(=O)Nc1ccccc1[N+](=O)[O-])CC(=O)c1ccco1
> 100 µM: 786-0 renal | A498 renal | A549 NSCLC | ACHN renal | CAKI-1 renal | CCRF-CEM leukemia | COLO 205 colon | DLD-1 colon | DMS 114 small cell lung | DMS 273 small cell lung | EKVX NSCLC | HCC-2998 colon | HCT-116 colon | HCT-15 colon | HL-60(TB) leukemia | HOP-18 NSCLC | HOP-62 NSCLC | HOP-92 NSCLC | HT29 colon | IGROV1 ovarian | K-562 leukemia | KM12 colon | KM20L2 colon | LOX IMVI melanoma | LXFL 529 NSCLC | M14 melanoma | M19-MEL melanoma | MALME-3M melanoma | MOLT-4 leukemia | NCI-H226 lung | NCI-H23 lung | NCI-H460 lung | NCI-H522 lung | OVCAR-3 ovarian | OVCAR-4 ovarian | OVCAR-5 ovarian | OVCAR-8 ovarian | RPMI-8226 leukemia | RXF 393 renal | RXF-631 renal | SF-268 CNS | SF-295 CNS | SF-539 CNS | SK-MEL-2 melanoma | SK-MEL-28 melanoma | SK-MEL-5 melanoma | SK-OV-3 ovarian | SN12C renal | SNB-19 CNS | SNB-75 CNS | SNB-78 CNS | SR leukemia | SW-620 colon | TK-10 renal | U251 CNS | UACC-257 melanoma | UACC-62 melanoma | UO-31 renal | XF 498 CNS
